The values below are quoted from earlier work in patent publication US20240115492A1, “AN ORODISPERSIBLE PHARMACEUTICAL SOLID DOSAGE FORM OF RASAGILINE” (INTAS PHARMACEUTICALS LTD., priority 2021, published 2024).

SMILES strings stand for the structures.

As for `C#CCN(C)[C@H](C)Cc1ccccc1` [selegiline], for the setting “10 mg orally disintegrated tablets vs conventional 10 mg tablets”, the “Selegiline plasma exposure, ODT versus conventional tablets” value is recorded as “twelve-time higher”. Also, the “selegiline absorbed through the mucous membrane of the mouth” value (ODT form (10 mg), within 1 minute) was “about 30%”.
